Source: patent US20190336598A1, “METHODS FOR MODULATING INFLAMMASOME ACTIVITY AND INFLAMMATION IN THE LUNG” (UNIVERSITY OF MIAMI, priority 2016, published 2019)
“Also recorded” adds a separate entry of the source.

B1: IC 100: humanized monoclonal antibody against ASC; recognizes murine, human and swine ASC (antibody, V domains shown)
VH: QVTLKESGPALVKPTQTLTLTCSFSGFSLSTSGMGVSWIRQPAGKGLEWLAHIYWDDDKRYNPSLKSRLTISKDSSKNQVVLTMTNMDPVDTATYSCARSTPIVANAMDYWGQGTLVTVSS
VL: DIVMTQSPDSLAVSLGERATINCKASQSVDYDGDSYMNWYQQKPGQPPKLLIYAASNLESGIPARFSGSGSGTDFTLTISSLQPEDVATYYCQQSNEDPYTFGQGTKLEIK

Tests used:
Format in all cases: in vivo, C57-BL6 mice
[1] = tested on: inflammasome proteins (caspase-1, ASC, IL-1β, AIM2, HMGB1) in lungs; assay: Immunoblot of inflammasome proteins in lungs after adoptive transfer of EV from TBI mice and treatment; details: vs untreated positive control; Enoxaparin 3 mg/kg or IC 100 5 mg/kg one hour after EV from TBI mice; lungs collected 24 hours after injection; p=<0.0001
Protocol: Lung and brain tissue samples were snap frozen in liquid nitrogen and stored in −80° C. 2-mm sections of right lower lung and right cortical tissue were homogenized in extraction buffer containing protease and phosphatase inhibitor cocktail (Sigma, St Louis, Mo., USA) and resolved in 4-20% Tris-TGX Criterion precasted gels (Bio-Rad, Hercules, Calif., USA) as described in de Rivero Vaccari et al. 2015 (13) using antibodies to caspase-1 (Novus Biologicals), ASC (Santa Cruz), IL-1 β (Cell Signaling), IL-18 (Abcam) AIM2 (Santa Cruz) and HMGB1 (Millipore). Quantification of band density was performed using Image Lab and all data were normalized to β-actin.
(§1) Serum-derived EV from C57BL-6 TBI and sham mice were injected into naïve C57BL-6 mice through the jugular vein at a dose of 1.0×10^10 particles per gram/body weight^48. Particle count was measured by Nanosight Tracking analysis and samples were diluted accordingly. Prior to surgery animals were anesthetized with ketamine and […]. A 1-2 cm incision was made between the jaw and the clavicle. The jugular vein was elevated and tied, followed by catheter placement. Serum-derived EV were transferred and lung and brain tissues were collected 24 hours after injection for analysis (n=5).
(§2) Serum-derived EV from TBI mice were injected into naïve C57-BL6 mice through a jugular vein injection. One hour later, Enoxaparin (3 mg/kg) (n=4) and Anti-ASC (5 mg/kg) (n=4) were administered to recipient animals. The following groups were used: 1) the naïve group received no treatment, 2) the sham saline group was used as a negative control and underwent jugular vein injection of only saline, 3) the untreated group received EV from TBI mice without any treatment and was used as a positive control, 4) the ENOX group received EV from TBI mice and Enoxaparin, and 5) the Anti-ASC group received EV from TBI mice and Anti-ASC. The order of treatment was randomized. Lung and brain tissues were collected 24 hours after injection for analysis. It should be noted that the anti-ASC antibody used in the treatment experiments was a humanized monoclonal antibody against ASC and recognizes murine, human and swine ASC.

[2] = tested on: lungs of animals delivered EV from injured mice (ALI); assay: Histology (H&E) and acute lung injury scoring after adoptive transfer of EV from TBI mice and treatment; details: Enoxaparin 3 mg/kg or IC 100 5 mg/kg one hour after EV from TBI mice; for neutrophil infiltration into alveolar and interstitial space (H&E stained lung sections, FIG. 9A-D) / septal thickening (H&E stained lung sections, FIG. 9A-D): lungs 24 hours after injection; for ALI score (FIG. 9E): vs untreated group, score 0 (no injury) to 1 (severe injury), p=<0.0001
Protocol: as §1, §2
Lung tissue sections were stained by a standard hematoxylin and eosin method for histology, morphometry and ALI scoring. Lung sections were scored by a blinded pathologist using the Lung Injury Scoring System from the American Thoracic Society Workshop Report (17). Twenty random high power fields were chosen for scoring. Criteria for ALI scoring was based on number of neutrophils in the alveolar space, interstitial space, hyaline membranes, proteinaceous debris filling the airspaces and alveolar septal thickening. Based on these criteria a score between 0 (no injury) and 1 (severe injury) was given.

[3] = tested on: inflammasome proteins (caspase-1, ASC, IL-1β, AIM2, HMGB1) in lungs; assay: Immunoblot of inflammasome proteins in lungs after adoptive transfer of EV from TBI mice and treatment; details: vs untreated positive control animals; Enoxaparin 3 mg/kg, IC 100 5 mg/kg; N=4 per group

Molecule | AIM2 in lungs (FIG. 8E) [1] | ASC in lungs (FIG. 8C) [1] | Caspase-1 in lungs (FIG. 8B) [1] | HMGB1 in lungs (FIG. 8F) [1] | IL-1β in lungs (FIG. 8D) [1] | neutrophil infiltration into alveolar and interstitial space (H&E stained lung sections, FIG. 9A-D) [2] | septal thickening (H&E stained lung sections, FIG. 9A-D) [2] | ALI score (FIG. 9E) [2] | IL-1β in lungs (FIG. 8D) [3]
Enoxaparin | significantly reduced | significantly reduced | significantly reduced | significantly reduced | significantly reduced | significantly less | no signs | significantly lower; also recorded: significantly decreased | reduced
B1 | significantly reduced | significantly reduced | significantly reduced | significantly reduced | significantly reduced | significantly less | no signs | significantly lower; also recorded: significantly decreased | reduced
